These are literature values, as cited in patent publication US20240173460A1, “STORAGE SOLUTIONS FOR MAINTAINING OF AXONAL VIABILITY” (Board of Regents, The University of Texas System, priority 2022, published 2024).

Each structure is given as a SMILES string.

With `[Cl-].[K+]` [Potassium Chloride], the solubility in water entry is “freely soluble in water”.
